Laboratory results as given in patent publication US4942226A, “Halogenated pyrimidine nucleosides and their derivatives” (Merck & Co., Inc., priority 1988, dated 1990).
Counter-ions that a name gives are not always drawn. Like-named read-outs stand apart in the source and are kept apart here.

Test: Determination of Ester Half-lives (conversion of ester to alcohol in phosphate buffer at 37°, HPLC)
Format: physicochemical
Conditions: read-out: t1/2 (time required for 50% conversion of ester to alcohol)
Method: Determination of Ester Half-lives
Two mL of phosphate buffer preheated to 37° were added to approximately 0.5 mg of the ester dihydrochloride. The resulting solution was heated at 37° while 20 μL samples were removed at intervals and injected directly into the HPLC injection port.
Unreacted ester and 5-halo-2'-deoxyuridine concentrations were determined by HPLC analysis on a C-18 reverse phase column using a gradient of 98% pH 2.4 phosphoric acid--2% acetonitrile to 70% pH 2.4 phosphoric acid--30% acetonitrile over 10 minutes. The UV detector was set at 280 nm. The half-life (t1/2) is the time required for 50% conversion of ester to alcohol.

Structure (SMILES): O=C(CNCCNCCC1CCCCC1)OC[C@H]1O[C@@H](n2cc(Br)c(=O)[nH]c2=O)C[C@@H]1O [Example 3, 5-Bromo-2'-deoxyuridine 5'-N-(2-(2-cyclohexylethylamino)ethyl]glycyl Ester Dihydrochloride]
- half-life (pH 6.8, 37°): 35 min
- half-life (pH 7.4, 37°): 22 min

Structure (SMILES): CCNCCNCC(=O)O[C@H]1C[C@H](n2cc(Br)c(=O)[nH]c2=O)O[C@@H]1CO [Example 1, 5-Bromo-2'-deoxyuridine 3'-N-(2-Ethylaminoethyl)-glycyl Ester Dihydrochloride]
- half-life (pH 6.8, 37°): 32 min
- half-life (pH 7.4, 37°): 26 min

Structure (SMILES): O=C(CNCCNCCC1CCCCC1)O[C@H]1C[C@H](n2cc(Br)c(=O)[nH]c2=O)O[C@@H]1CO [Example 2, 5-Bromo-2'-deoxyuridine 3'-[N-(2-(2-Cyclohexylethylamino)ethyl)glycyl]esterDihydrochloride]
- half-life (pH 6.8, 37°): 47 min
- half-life (pH 7.4, 37°): 29 min
